The EC50 is the concentration at which the effect is half-maximal. Read a high EC50 as a need for much substance. As a reminder, the Ki is a measure of affinity in units of concentration, obtained from inhibition or displacement. A high value points to weaker binding.

Here are results for 3 molecules from patent publication US6884820B2, “5,6,7,8-tetrahydronaphthalen-2-yl-7-fluoroalkyl-heptatrienoic acid derivatives having serum glucose reducing activity” (Allergan, Inc., priority 2003, dated 2005).

The target in data set [1] is T1, RXRβ (Homo sapiens, UniProt P28702).
T1 sequence (P28702 1-533): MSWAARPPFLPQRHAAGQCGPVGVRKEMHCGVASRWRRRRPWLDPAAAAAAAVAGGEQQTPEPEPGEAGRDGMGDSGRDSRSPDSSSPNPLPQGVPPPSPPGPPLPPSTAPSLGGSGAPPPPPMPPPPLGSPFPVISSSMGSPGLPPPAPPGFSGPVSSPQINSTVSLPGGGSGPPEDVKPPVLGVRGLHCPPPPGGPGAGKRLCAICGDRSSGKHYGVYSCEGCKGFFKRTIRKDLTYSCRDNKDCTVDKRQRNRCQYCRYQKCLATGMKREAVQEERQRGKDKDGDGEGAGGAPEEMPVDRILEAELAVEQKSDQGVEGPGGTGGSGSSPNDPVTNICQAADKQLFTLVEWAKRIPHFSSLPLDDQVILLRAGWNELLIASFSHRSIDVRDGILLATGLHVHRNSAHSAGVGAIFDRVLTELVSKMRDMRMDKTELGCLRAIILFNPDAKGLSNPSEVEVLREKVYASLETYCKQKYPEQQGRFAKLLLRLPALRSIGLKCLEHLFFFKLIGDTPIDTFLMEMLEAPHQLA
The data set can be described thus: holoreceptor transactivation assay, RXRβ.
Description: (§1) The results obtained in this assay are expressed in EC50 numbers, as they are also in the chimeric receptor transactivation assay.
(§2) Efficacy in a transactivation assay is expressed as a percentage of the maximum potency attained by the compound compared to a standard which, in this case, is the compound named (2E, 4E, 1′S, 2′S)-3-methyl-5-[2′-methyl-2′-(5,5,8,8-tetramethyl-5,6,7,8-tetrahydro-naphthalen-2-yl)-cyclopropyl]-penta-2,4-dienoic acid.
(§3) Particularly, the transactivation data pertaining to activation of the RAR receptors were obtained in the chimeric assay, and the transactivation data pertaining to the activation of RXR receptors were obtained in the holoreceptor assay.

Data set [2] has as its target T2, RARβ (Homo sapiens, UniProt P10826).
T2 sequence (P10826 1-455): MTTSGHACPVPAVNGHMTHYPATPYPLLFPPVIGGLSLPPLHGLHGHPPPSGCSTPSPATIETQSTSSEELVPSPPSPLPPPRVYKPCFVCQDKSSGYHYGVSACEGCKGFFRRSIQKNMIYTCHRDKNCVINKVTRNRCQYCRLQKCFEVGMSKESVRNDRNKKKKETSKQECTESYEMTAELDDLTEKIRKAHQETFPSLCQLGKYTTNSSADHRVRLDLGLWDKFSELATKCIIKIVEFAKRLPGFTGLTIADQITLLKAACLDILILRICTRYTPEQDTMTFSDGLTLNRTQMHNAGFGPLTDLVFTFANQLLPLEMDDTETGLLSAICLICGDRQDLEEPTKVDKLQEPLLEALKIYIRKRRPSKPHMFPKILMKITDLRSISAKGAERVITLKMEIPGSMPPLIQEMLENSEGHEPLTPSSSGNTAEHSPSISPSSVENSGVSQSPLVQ
The data set can be described thus: ligand binding assay, RARβ.
Description: (§4) The results of the ligand binding assay are expressed in Ki numbers.

For data set [3], the target named is T3, RXRα (Homo sapiens, UniProt P19793).
T3 sequence (P19793 1-462): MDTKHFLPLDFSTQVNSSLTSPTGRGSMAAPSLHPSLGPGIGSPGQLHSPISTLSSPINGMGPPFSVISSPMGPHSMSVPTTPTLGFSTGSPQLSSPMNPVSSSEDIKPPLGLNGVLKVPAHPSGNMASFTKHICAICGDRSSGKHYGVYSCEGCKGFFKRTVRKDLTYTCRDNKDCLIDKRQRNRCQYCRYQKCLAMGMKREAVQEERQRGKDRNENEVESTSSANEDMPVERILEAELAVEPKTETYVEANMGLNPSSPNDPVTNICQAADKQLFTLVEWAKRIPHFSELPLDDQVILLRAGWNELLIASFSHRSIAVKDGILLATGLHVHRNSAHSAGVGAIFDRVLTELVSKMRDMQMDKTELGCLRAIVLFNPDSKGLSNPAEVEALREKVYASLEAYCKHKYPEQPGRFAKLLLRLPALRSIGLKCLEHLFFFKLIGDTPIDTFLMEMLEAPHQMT
In words: holoreceptor transactivation assay, RXRα.
Description: as §1, §2, §3

In data set [4] the target is T4, RXRγ (Homo sapiens, UniProt P48443).
T4 sequence (P48443 1-463): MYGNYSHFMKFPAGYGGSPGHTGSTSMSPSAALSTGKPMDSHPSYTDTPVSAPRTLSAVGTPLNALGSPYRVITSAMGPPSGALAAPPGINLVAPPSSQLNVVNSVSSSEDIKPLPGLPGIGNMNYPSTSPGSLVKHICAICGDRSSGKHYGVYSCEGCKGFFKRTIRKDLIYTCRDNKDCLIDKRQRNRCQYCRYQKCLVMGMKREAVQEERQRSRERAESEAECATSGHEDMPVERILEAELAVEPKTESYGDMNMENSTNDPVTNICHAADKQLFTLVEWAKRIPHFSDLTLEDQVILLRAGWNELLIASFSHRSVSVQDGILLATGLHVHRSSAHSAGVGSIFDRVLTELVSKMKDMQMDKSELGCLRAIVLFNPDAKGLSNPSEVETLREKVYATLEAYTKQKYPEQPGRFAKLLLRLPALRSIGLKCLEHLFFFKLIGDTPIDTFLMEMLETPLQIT
The data set can be described thus: holoreceptor transactivation assay, RXRγ.
Description: as §1, §2, §3

The target in data set [5] is T5, RARα (Homo sapiens, UniProt P10276).
T5 sequence (P10276 1-462): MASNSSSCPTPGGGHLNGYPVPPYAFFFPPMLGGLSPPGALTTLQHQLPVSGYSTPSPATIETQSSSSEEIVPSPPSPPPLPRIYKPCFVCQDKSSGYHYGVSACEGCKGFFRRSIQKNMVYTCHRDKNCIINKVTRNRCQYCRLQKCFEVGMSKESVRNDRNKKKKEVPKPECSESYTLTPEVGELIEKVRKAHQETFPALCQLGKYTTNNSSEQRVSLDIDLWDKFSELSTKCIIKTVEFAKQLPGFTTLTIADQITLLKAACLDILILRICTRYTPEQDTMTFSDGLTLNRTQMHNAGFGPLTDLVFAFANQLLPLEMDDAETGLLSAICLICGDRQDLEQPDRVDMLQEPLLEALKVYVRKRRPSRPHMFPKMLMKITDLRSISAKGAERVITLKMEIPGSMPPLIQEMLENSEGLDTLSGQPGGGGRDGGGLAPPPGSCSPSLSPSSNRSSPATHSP
The data set can be described thus: ligand binding assay, RARα.
Description: as §4

Data set [6] deals with T6, RARγ (Homo sapiens, UniProt P13631).
T6 sequence (P13631 1-454): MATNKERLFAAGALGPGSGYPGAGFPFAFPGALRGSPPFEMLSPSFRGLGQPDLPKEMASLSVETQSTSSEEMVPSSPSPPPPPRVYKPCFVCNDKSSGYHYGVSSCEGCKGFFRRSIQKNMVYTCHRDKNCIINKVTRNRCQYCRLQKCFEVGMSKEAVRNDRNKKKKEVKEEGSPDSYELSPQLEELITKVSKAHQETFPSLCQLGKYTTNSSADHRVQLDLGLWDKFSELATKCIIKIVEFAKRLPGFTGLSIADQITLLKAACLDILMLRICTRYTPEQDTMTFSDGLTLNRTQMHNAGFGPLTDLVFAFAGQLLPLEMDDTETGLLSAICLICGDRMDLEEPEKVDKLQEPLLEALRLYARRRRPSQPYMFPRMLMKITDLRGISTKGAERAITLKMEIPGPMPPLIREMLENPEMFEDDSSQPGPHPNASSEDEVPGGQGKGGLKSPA
The data set can be described thus: ligand binding assay, RARγ.
Description: as §4

In data set [7] the target is T3, RXRα. The data set can be described thus: ligand binding assay, RXRα.
Description: as §4
Data set [8] addresses T7, RARβ (Homo sapiens, UniProt P10826).
T7 sequence (P10826 183-417 limits assumed): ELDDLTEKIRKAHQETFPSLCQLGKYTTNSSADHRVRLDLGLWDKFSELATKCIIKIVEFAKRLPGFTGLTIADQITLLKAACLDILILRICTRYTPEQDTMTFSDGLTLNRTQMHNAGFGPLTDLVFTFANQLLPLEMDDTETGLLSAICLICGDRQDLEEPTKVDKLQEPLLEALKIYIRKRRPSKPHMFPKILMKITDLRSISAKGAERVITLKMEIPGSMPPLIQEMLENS
The data set can be described thus: chimeric receptor transactivation assay, RARβ. The settings on record: for RAR β transactivation efficacy as a percentage compared to the standard compound: value in parentheses, relative to standard compound of U.S. Pat. No. 6,114,533.
Description: as §2, §3

In data set [9] the target is T1, RXRβ. In words: ligand binding assay, RXRβ.
Description: as §4
Data set [10] concerns Female diabetic db/db mice. The data set can be described thus: serum glucose, triglyceride and thyroxine levels in female db/db mice.
Protocol: An assay described below tests the effect of compounds of the invention on serum glucose, tryglyceride and thyroxine levels in female 9-10 weeks old db/db mice.
Female diabetic db/db (9-10 weeks old) mice were maintained on standard laboratory food and treated by oral gavage with vehicle (corn oil), standard compound (2E, 4E, 1′S, 2′S)-3-methyl-5-[2′-methyl-2′-(5,5,8,8-tetramethyl-5,6,7,8-tetrahydro-naphthalen-2-yl)-cyclopropyl]-penta-2,4-dienoic acid (5 mg/kg) or the test compound (5-100 mg/kg, as described in Table 2) daily for seven days at 8:00 AM. Blood samples (70 μ) were taken by orbital bleeding at 11:00 AM on day 0 (pre-treatment), day 3, and day 6. On day 7, a blood sample (700 μt) was taken at 11:00 AM and the animals were sacrificed. Glucose, triglyceride and thyroxine (T4) levels were determined on a Boehringer Manheim Hatachi Clinical Chemistry Analyzer using standard protocols provided by the manufacturer and reagents that were supplied in commercially available kits (glucose and T4: Boehringer Manheim; triglycerides: Roche Diagnostics).
[11] abbreviates: value in parentheses, relative to standard compound of U.S. Pat. No. 6,114,533.
[12] abbreviates: Day 0 (pre-treatment), female db/db mice, group later given standard compound 5 mg/kg or Compound 6 50 mg/kg by oral gavage.
Where [13] appears, read: Day 3, 3 h, oral gavage daily, standard compound 5 mg/kg, Compound 6 50 mg/kg.

Molecules are shown by their SMILES. A value given as a limit tells only on which side of the number the result lay.

Regarding `COc1cc2c(cc1C(=C/C=C/C(C)=C/C(=O)O)C(F)(F)F)C(C)(C)CCC2(C)C` (stereo in doubt) [Compound 5, (2E,4E,6Z)-8,8,8-Trifluoro-7-(3-methoxy-5,5,8,8-tetramethyl-5,6,7,8-tetrahydro-naphthalen-2-yl)-3-methyl-octa-2,4,6-trienoic acid], the concentration giving a half-maximal response (EC50) in data set [1] was 5 nM; in data set [3] it was 0.6 nM; in data set [4] it was 2 nM; in [8] it was 150 nM. The “RXR β transactivation efficacy as a percentage compared to the standard compound” value in data set [1] (setting [11]) is recorded as 111%. For the same molecule, the Ki in [2] stood at 484 nM; in data set [5], 504 nM; in data set [6], 1200 nM; in data set [7], 66 nM; in data set [9], 423 nM. In addition, the “RXR α transactivation efficacy as a percentage compared to the standard compound” value in data set [3] (setting [11]) amounted to 112%. Besides, the “RXR γ transactivation efficacy as a percentage compared to the standard compound” value in [4] (setting [11]) stood at 121%. In addition, the “RAR β transactivation efficacy as a percentage compared to the standard compound” value in data set [8] is reported as 32%.

As for `CCCOc1cc2c(cc1C(=C/C=C/C(C)=C/C(=O)O)C(F)(F)F)C(C)(C)CCC2(C)C` (stereo in doubt) [Compound 7, (2E,4E,6Z)-8,8,8-Trifluoro-3-methyl-7-(5,5,8,8-tetramethyl-3-propoxy-5,6,7,8-tetrahydro-naphthalen-2-yl)-octa-2,4,6-trienoic acid], the Ki was 452 nM in [2]; 1800 nM in [5]; more than 10000 nM in data set [6]; 22 nM in [7]; 115 nM in data set [9]. The molecule further came in with an EC50 in data set [8] of 54 nM. Besides, the “RAR β transactivation efficacy as a percentage compared to the standard compound” value in data set [8] was 9%.

Regarding `CC(/C=C/[C@@H]1C[C@]1(C)c1ccc2c(c1)C(C)(C)CCC2(C)C)=C\C(=O)O` [Standard compound], in data set [10] (setting [12]), the “Glucose Day 0” value came to 526 ± 135 mg/dL and the “Triglycerides Day 0” value amounted to 290 ± 55 mg/dL. For the same molecule, in [10] (setting [13]), the “Glucose Day 3, 3 h” value amounted to 444 ± 125 mg/dL and the “Triglycerides Day 3, 3 h” value is 590 ± 422 mg/dL. Moreover, in data set [10] (Day 6, 3 h, oral gavage daily, standard compound 5 mg/kg, Compound 6 50 mg/kg), the “Glucose Day 6, 3 h” value worked out at 399 ± 128 mg/dL. For the same molecule, the “T4 Day 7” value in data set [10] (Day 7, oral gavage daily for seven days, standard compound 5 mg/kg, Compound 6 50 mg/kg) turned out to be 1.5 ± 0.6 µg/dL. Further, the “effect on serum thyroxine levels” value in data set [10] (diabetic mammals) is “reducing serum thyroxine levels”.
